Where two headings read alike, the source gives them in different places.
Assay: single oral dose pharmacokinetic study in healthy and NASH subjects
Assay type: in vivo, human
Details: for Cmax: po, read-out: Cmax, Mean
Description: The present Example was a randomized, dose ranging, single dose safety and pharmacokinetic study of 25HC3S administered to subjects with NASH and control healthy subjects. […] For each cohort, 10 subjects with NASH were enrolled which were further classified into cirrhotic and non-cirrhotic. Each subject received only one dose of study treatment. The second cohort was dosed after a review of safety and tolerability data from Cohort 1.

Compound: C[C@H](CCCC(C)(C)O)[C@H]1CC[C@H]2[C@@H]3CC=C4C[C@@H](OS(=O)(=O)O)CC[C@]4(C)[C@H]3CC[C@]12C [25HC3S, 25-hydroxycholesterol-3-sulfate]
- CL/F, Mean (200 mg single oral dose, Healthy): 171.25 ± 28.60 L/h
- Plasma 25HC3S levels detectable up to, post-dose (Cohort 1 (50 mg) healthy subjects): up to 12 hours
- AUC0-inf higher in NASH subjects (Cohort 2): approximately 20%
- Geometric mean AUC0-12 and AUC0-last higher in NASH than healthy subjects (Cohort 2): approximately 30%
- Plasma 25HC3S levels detectable up to, post-dose (Cohort 2 (200 mg) healthy subjects): up to 16 hours
- geometric mean Cmax increase, NASH over healthy subjects (Cohorts 1 and 2): 18-24%
- exposure (AUC parameters), increasing trends in NASH subjects (NASH vs healthy): up to 31%
- half-life (human, plasma, oral, 200 mg, across both healthy and NASH subject groups, 50 and 200 mg, read-out: T1/2, range of mean values): 1.67 to 2.51 h
- Cmax (human, plasma, 50 mg, 50 mg single oral dose, Healthy): 94 ± 27.3 ng/mL
- Cmax (human, plasma, 200 mg, 200 mg single oral dose, Healthy): 260 ± 54.8 ng/mL
